Assay results as given in patent US20090175872A1, “Treatment of Conditions Involving Demyelination” (BIOGEN Idec MA Inc., priority 2005, published 2009).
No end group written: not given here. *: point of attachment. Biotin = O=C1N[C@H]2[C@H](CS[C@H]2CCCCC(=O)*)N1

Key:
[1] = tested on: co-cultures of dorsal root ganglion (DRG) neurons and oligodendrocytes; assay: Myelination in co-cultures of DRG neurons and oligodendrocytes; format: cell-based, rat; settings: 4-week-old treated co-cultures, anti-MBP antibody
Experimental: The role of Sp35 in myelination was examined in vitro by treating co-cultures of dorsal root ganglion (DRG) neurons and oligodendrocytes with Sp35-Fc and testing for myelination by immunohistochemistry and electron microscopy. For these studies, it was necessary to first generate primary cultures of DRG neurons and of oligodendrocytes.
Female Long Evans rat E14-E17 embryonic dorsal root ganglia were cultured as described by Plant et al., J. Neurosci. 22:6083-91 (2002). Dissected DRGs were plated on poly-L-lysine-coated cover slips (100 μg/ml) for 2 weeks in the presence of fluorodeoxyuridine for days 2-6 and days 8-11 in NLA medium containing 1×B27, 100 ng/ml NGF (Invitrogen).
A2B5^+ oligodendrocytes were prepared as described in Example 1, and were harvested by trypsinization.
For coculture studies, A2B5^+ oligodendrocytes were added to DRG neuron drop cultures in the presence or absence of 10 μg/ml Sp35-Fc. The culture medium (Neurobasal medium supplemented with B27 and 100 ng/ml NGF) was changed, and fresh Sp35-Fc was added to the cells every 3 d. To identify changes in myelination, 2-week-old cultures were stained by immunohistochemical staining (“IHC”) for neurofilaments with anti-βIII-tubulin antibody to identify axons, or anti-MBP antibody to identify oligodendrocytes., and 4-week-old cultures were subjected to SDS-PAGE followed by western blot analyses to quantify the MBP. In selected examples, cells were fixed for electron microscopy studies by adding 2.5% gluteraldehyde directly onto the cover slips. Myelinated axons in the 2-week-old cultures were quantified by counting the number of myelinated internode bundles that were derived from single MBP^+ oligodendrocytes. Samples were analyzed in duplicate. Error bars denote individual determinations. P values in all studies were determined using a one-way analysis of variance. […]
We performed experiments to address the relative contributions to the myelination process of Sp35 in DRG neurons as compared to oligodendrocytes. We infected DRG neurons, oligodendrocytes and co-cultures (prepared as described in Example 5) with the FL-Sp35 and DN-Sp35 lentiviral vectors described in Example 1 and performed immunohistochemical straining for myelinated MBP^+ cells after two weeks. A 2-fold increase in MBP levels in co-cultures where both cells express DN-Sp35 and a 2-fold decrease in MBP levels in co-cultures where both cells express FL-Sp35 was observed (FIG. 10G).

human ErbB2 = target: T1, human ErbB2 (Homo sapiens, UniProt P04626); assay: AP-Sp35 binding to ErbB2-transfected CHO cells; settings: for binding to ErbB2 expressed in CHO cells: FIGS. 17B and 17C
T1 construct: expressed in transfected cells; host or cells: CHO cells, transient transfection with Fugene 6, assayed after 48 hours
Experimental: ErbB2 is a member of the type I family of transmembrane receptor tyrosine kinases. The family comprises four members: epidermal growth factor receptor (EGFR or ErbB1), ErB2 (HER2 or neu), ErbB3 and ErbB4. Oligodendrocyte differentiation is positively regulated by the ErbB2 receptor tyrosine kinase. To examine the potential interaction between Sp35 and ErB2, an N-terminal AP-tagged human Sp35 protein was tested for binding to human ErbB2-transfected Chinese hamster ovary (CHO) cells.
90% confluent CHO cells were transfected with various combinations of human ErbB2 vector expression plasmid using Fugene 6 reagents (Roche). After 48 hours, the transfected cells were washed with HBH (Hank's balanced salt solution, 1 mg/ml BSA, 20 mM HEPES (pH 7.0)) and incubated for 1.5 hours at 23° C. or […] with 4 μg/ml of AP-Sp35 (human placental alkaline phosphotase (AP) with an N-terminal six histidine tag, fused to the C-terminus of human Sp35 (residues 34-532), as described in Mi et al., Nat. Neurosci. 7:221-228 (2004)) or control AP-protein in HBH. Bound AP-Sp35 was detected directly or following detergent lysis of the cells by ELISA and enzymatic activity was quantified with 4-NPP as described in Mi et al. Nat. Neurosci. 7:221-228 (2004).
In order to identify the Sp35 domain that binds ErbB2, soluble truncated forms of AP-Sp35 were tested for binding. Both the LRR domain of Sp35 (amino acids 34-417 of SEQ ID NO:2) (AP-Sp35-LRR) and the extracellular domain of Sp35 (amino acids 34-532 of SEQ ID NO:2) (AP-Sp35) bound to ErbB2 expressed in CHO cells. […] FIGS. 17B and 17C.

| EC50 (human ErbB2; FIG. 17A, read-out: EC50 of binding to CHO cells expressing ErbB2) | binding to ErbB2 expressed in CHO cells (human ErbB2) | Molecule | expression of MBP (western blot) [1] |
| --- | --- | --- | --- |
|  |  | Ac-CLSPEKVC (also: cyclic, type not given here) | no increase in MBP |
|  |  | Ac-CLSPRKHC (Ac-CLSPRKHC-NH2; also: cyclic, type not given here) | increased expression of MBP |
|  |  | Biotin-GSGCKHSPLRC (cysteine pairing not given here) | no increase in MBP |
|  |  | Biotin-GSGCLSPEKVC (cysteine pairing not given here) | no increase in MBP |
|  |  | Biotin-GSGCLSPRKHC (cysteine pairing not given here) | increased expression of MBP |
| 3 nM | bound | AP-Sp35: human placental alkaline phosphatase with six histidine tag fused to human Sp35 residues 34-532 (protein, listed as Homo sapiens, alkaline phosphatase fusion partner) TGCPPRCECSAQDRAVLCHRKRFVAVPEGIPTETRLLDLGKNRIKTLNQDEFASFPHLEELELNENIVSAVEPGAFNNLFNLRTLGLRSNRLKLIPLGVFTGLSNLTKLDISENKIVILLDYMFQDLYNLKSLEVGDNDLVYISHRAFSGLNSLEQLTLEKCNLTSIPTEALSHLHGLIVLRLRHLNINAIRDYSFKRLYRLKVLEISHWPYLDTMTPNCLYGLNLTSLSITHCNLTAVPYLAVRHLVYLRFLNLSYNPISTIEGSMLHELLRLQEIQLVGGQLAVVEPYAFRGLNYLRVLNVSGNQLTTLEESVFHSVGNLETLILDSNPLACDCRLLWVFRRRWRLNFNRQQPTCATPEFVQGKEFKDFPDVLLPNYFTCRRARIRDRKAQQVFVDEGHTVQFVCRADGDPPPAILWLSPRKHLVSAKSNGRLTVFPDGTLEVRYAQVQDNGTYLCIAANAGGNDSMPAHLHVRSYSPDWPHQPNKTFAFISNQPGE |  |
|  | bound | AP-Sp35-LRR: AP-tagged LRR domain of Sp35, amino acids 34-417 of SEQ ID NO:2 (protein, listed as Homo sapiens, AP tag fused) TGCPPRCECSAQDRAVLCHRKRFVAVPEGIPTETRLLDLGKNRIKTLNQDEFASFPHLEELELNENIVSAVEPGAFNNLFNLRTLGLRSNRLKLIPLGVFTGLSNLTKLDISENKIVILLDYMFQDLYNLKSLEVGDNDLVYISHRAFSGLNSLEQLTLEKCNLTSIPTEALSHLHGLIVLRLRHLNINAIRDYSFKRLYRLKVLEISHWPYLDTMTPNCLYGLNLTSLSITHCNLTAVPYLAVRHLVYLRFLNLSYNPISTIEGSMLHELLRLQEIQLVGGQLAVVEPYAFRGLNYLRVLNVSGNQLTTLEESVFHSVGNLETLILDSNPLACDCRLLWVFRRRWRLNFNRQQPTCATPEFVQGKEFKDFPDVLLPNYFTCRR |  |
|  | no detectable binding | AP-Sp35-Ig: AP-tagged Ig plus stalk domain of Sp35, amino acids 417-532 of SEQ ID NO:2 (protein, listed as Homo sapiens, AP tag fused) RARIRDRKAQQVFVDEGHTVQFVCRADGDPPPAILWLSPRKHLVSAKSNGRLTVFPDGTLEVRYAQVQDNGTYLCIAANAGGNDSMPAHLHVRSYSPDWPHQPNKTFAFISNQPGE |  |
